According to patent US9708359B2, “Pyrrolopyrimidine nucleosides and analogs thereof” (Chimerix, Inc., priority 2015, dated 2017):

Legend:
[1] = Cytotoxicity (CC50) in RAW cells; details: mouse
[2] = tested on: mouse norovirus; assay: Mouse Norovirus (MNV) assay in RAW cells; details: Norovirus, in Mus musculus, read-out: MNV Mean EC50, RAW cells
[3] = tested on: human norovirus; assay: Efficacy of Compound 1 Against Human Norovirus (viral titer); format: cell-based; details: cells pretreated with 25 μM compound for two hours; duplicate (FIGS. 4-6)
Experimental: The efficacy of compound 1 for inhibiting norovirus was compared to DMSO (as a control), compound 2, and 2′-C-methylcytidine triphosphate (2′CmeC TP). Cells were pretreated with 25 μM of experimental compound for two hours. Virus inoculum was added for two hours, and unbound virus washed off and fresh media and fresh experimental compound was added.

Row | Compound | CC50 [1] | EC50 [2] | viral titer [3]
1 | C[C@@]1(O)[C@H](O)[C@@H](CO)O[C@H]1n1ccc(N)nc1=O [2′-C-Methyl Cytidine, reference compound] | 34.3 µM | 3.2 µM | 
2 | C[C@@]1(O)[C@H](O)[C@@H](COP(=O)(O)OP(=O)(O)OP(=O)(O)O)O[C@H]1n1ccc(N)nc1=O [2′CmeC TP, 2′-C-methylcytidine triphosphate, reference compound] |  |  | increased almost two orders of magnitude
